Patent publication US20180296586A1, “USE OF NADPH FOR PREPARATION OF A DRUG FOR ANTIPLATELET AGGREGATION” (Chongqing Institute of Bench-to-Bed Bioengineering …, priority 2015, published 2018)

Experiments:
[1] = system: thrombin-induced platelet aggregation; assay: Thrombin-induced platelet aggregation of rats, in-vitro administration of NADPH; assay type: cell-based; details: rat PRP, NADPH 30, 60 and 90 μM in vitro, thrombin 2U, 4 min; P<0.05, P<0.01 vs thrombin group
Experimental: (§1) 20 rats are subjected to blood drawing from abdominal aorta, 3.8% sodium citrate is used for carrying out anticoagulation treatment according to a drawn blood volume/anticoagulant ratio of 9:1, centrifugation is carried out for 5 min at a rate of 1000 r/min, upper-layer platelet-rich plasma (PRP) is sucked out, remaining blood is subjected to centrifugation for 10 min at a rate of 3000 r/min to prepare platelet-poor plasma (PPP) until the number of platelets is 2*10<8>/mL, and platelet aggregation is detected by adopting a platelet aggregometer Chronolog-590.
The platelet aggregometer is turned on and preheated for 30 min, and light transmittance is adjusted to 100 % with PPP as blank control. 0.25 mL of NADPH samples of different concentrations (30 μM, 60 μM and 90 μM) are added into PRP, preheating is conducted for 5 min at the temperature of 37 DEG C., the preheated material is put into the aggregometer, then, a certain amount of thrombin (2U) is added to induce platelet aggregation, graphic changes in 4 min are recorded, and conditions of thrombin-induced platelet aggregation caused by NADPH are observed.

[2] = system: thrombin-induced platelet aggregation; assay: Thrombin-induced platelet aggregation after preventive administration of NADPH in rats; assay type: in vivo, rat; details: NADPH 7.5 mg/kg caudal vein 30 min before blood drawing, thrombin 2U, P<0.01
Experimental: as §1, with “Normal SD male rats are randomly divided into 2 groups, i.e., a physiological saline group (saline group) and an NADPH (7.5 mg/kg) dosage group in a manner that each group comprises 10 rats. NADPH is injected into the rats through caudal veins 30 min before blood drawing. The” for “20”
The platelet aggregometer is turned on and preheated for 30 min, and light transmittance is adjusted to 100% with PPP as blank control. […]

[3] = system: ADP-induced platelet aggregation; assay: ADP-induced platelet aggregation after preventive administration of NADPH in rats; assay type: in vivo, rat; details: NADPH 7.5 mg/kg caudal vein 30 min before blood drawing, ADP 20 μM, P<0.01
Experimental: as §1, with “Normal SD male rats are randomly divided into 2 groups, i.e., a physiological saline group (saline group) and an NADPH (7.5 mg/kg) dosage group in a manner that each group comprises 10 rats. NADPH is injected into the rats through caudal veins 30 min before blood drawing. The” for “20”
The platelet aggregometer is turned on and preheated for 30 min, and light transmittance is adjusted to 100% with PPP as blank control. APRP sample of the physiological saline group (saline group) and a PRP sample of the NADPH (7.5 mg/kg) dosage group are preheated for 5 min at the temperature of 37 DEG C., the preheated PRP samples are put into the aggregometer, then, a certain amount of ADP (20 μM) is added to induce platelet aggregation, graphic changes in 4 min are recorded, and conditions of ADP-induced platelet aggregation caused by NADPH are observed.

[4] = system: ADP-induced platelet aggregation; assay: ADP-induced platelet aggregation of rats, in-vitro administration of NADPH; assay type: cell-based; details: rat PRP, NADPH 30, 60 and 90 μM in vitro, ADP 20 μM, 4 min; P<0.05, P<0.01 vs ADP group
Experimental: as §1
The platelet aggregometer is turned on and preheated for 30 min, and light transmittance is adjusted to 100% with PPP as blank control. 0.25mL of NADPH samples of different concentrations (30 μM, 60 μM and 90 μM) are added into PRP, preheating is conducted for 5 min at the temperature of 37 DEG C., the preheated material is put into the aggregometer, then, a certain amount of ADP (20 μM) is added to induce platelet aggregation, graphic changes in 4 min are recorded, and conditions of ADP-induced platelet aggregation caused by NADPH are observed.

NC(=O)C1=CN([C@@H]2O[C@H](COP(=O)(O)OP(=O)(O)OC[C@H]3O[C@@H](n4cnc5c(N)ncnc54)[C@H](OP(=O)(O)O)[C@@H]3O)[C@@H](O)[C@H]2O)C=CC1 [NADPH, Reduced triphosphopyridine nucleotide]
inhibition of thrombin-induced platelet aggregation [1]: inhibits thrombin-induced platelet aggregation of the rats in a dose-dependent mode | inhibition of thrombin-induced platelet aggregation [2]: remarkably inhibit thrombin-induced platelet aggregation | inhibition of ADP-induced platelet aggregation [3]: remarkably inhibit ADP-induced platelet aggregation | inhibition of ADP-induced platelet aggregation [4]: inhibits ADP-induced platelet aggregation of rats in a dose-dependent mode
